These results are taken from ChEMBL document CHEMBL1914290, “3,4-Disubstituted oxazolidin-2-ones as constrained ceramide analogs with anticancer activities” (Bioorg Med Chem, 2011).

Activity calls are given as the source filed them. No cut-off for these calls is given here.

Test [1] has as its system HL-60. The test is described as follows: Antileukemic activity against human HL60 cells at 20 uM after 16 hrs by MTT assay. Type of test: functional, cell-based. On the technique in general: Tetrazolium assays rely on reduction of a dye to a coloured formazan, in cell work by metabolically active cells.
Test [2] relates to HL-60. The test can be described thus: Induction of apoptosis in human HL60 cells assessed as DNA fragmentation at 20 uM after 15 hrs. Type of test: functional, cell-based.

As for `CCCCCCCCCCCCC/C=C/[C@@H](O)[C@@H]1COC(=O)N1C(=O)c1ccco1`, the result in test [1] was Active.

Turning to `CCCCCC/C=C/[C@@H](O)[C@@H]1COC(=O)N1C(=O)C1CCCC1`, the result in test [1] was inactive.

Take `CCCCCCCCCCCCC/C=C/[C@@H](O)[C@@H]1COC(=O)N1C(=O)C/C=C/c1ccccc1`: in test [1], the outcome was inactive.

Take `CCCCCCCCCCCCC/C=C/[C@@H](O)[C@@H]1COC(=O)N1C(=O)CCCCCCCCCCCCCCC`: the result in test [1] was inactive. In addition, in test [2], the result was Active.

Consider `CCCCCCCCCCCCC/C=C/[C@@H](O)[C@@H]1COC(=O)N1C(=O)c1ccccc1OC`, for which the outcome in test [1] was Active.

On to `O=C1OC[C@@H]([C@H](O)/C=C/C2CCCCC2)N1C(=O)C1CCCC1`, for which the outcome in test [1] was inactive.

On to `CCCCCCCCCCCCC/C=C/[C@@H](O)[C@@H]1COC(=O)N1C(=O)C(C)C`, for which the result in test [1] and in test [2] was Active.

Consider `CCCCCCCCCCCCC/C=C/[C@@H](O)[C@@H]1COC(=O)N1C(=O)C(C)(C)C`, for which the result in test [1] was Active.

With `CCCC/C=C/[C@@H](O)[C@@H]1COC(=O)N1C(=O)C1CCCC1`, the result in test [1] was inactive.

`CCCCCCCCCCCCC/C=C/[C@@H](O)[C@@H]1COC(=O)N1C(C)=O`: the result in test [1] and in test [2] was Active.

`CCCCCCCCCCCCC/C=C/[C@@H](O)[C@@H]1COC(=O)N1C(=O)c1ccccc1`: the outcome in test [1] and in test [2] was Active.

For the molecule `CCCCCCCC/C=C/[C@@H](O)[C@@H]1COC(=O)N1C(=O)C1CCCC1`, in test [1], the outcome was inactive.

`CCCCCCCCCCCCC/C=C/[C@@H](O)[C@@H]1COC(=O)N1C(=O)c1ccc([N+](=O)[O-])cc1`: the result in test [1] and in test [2] was Active.

For `CCCCCCCCCCCCC/C=C/[C@@H](O)[C@@H]1COC(=O)N1C(=O)Cc1ccccc1`, in test [1], the result was inactive.

Turning to `CCCCCCCCCC/C=C/[C@@H](O)[C@@H]1COC(=O)N1C(=O)C1CCCC1`, the result in test [1] was Active.

On to `O=C1OC[C@@H]([C@H](O)/C=C/C2CCCC2)N1C(=O)C1CCCC1`, for which, in test [1], the result was inactive.

On to `CCCCCCCCCCCCC/C=C/[C@@H](O)[C@@H]1COC(=O)N1C(=O)C1CCCC1`, for which the outcome in test [1] and in test [2] was Active.

Regarding `CCCCCCCCCCCCC/C=C/[C@@H](O)[C@@H]1COC(=O)N1C(=O)CC`, the result in test [1] and in test [2] was Active.

For the molecule `O=C1OC[C@@H]([C@H](O)/C=C/Cc2ccccc2)N1C(=O)C1CCCC1`, in test [1], the outcome was inactive.

On to `CCCCCCCCCCCCC/C=C/[C@@H](O)[C@@H]1COC(=O)N1C(=O)c1cccc2ccccc12`, for which the outcome in test [1] was Active.
